Kd data for one molecule are collected here from BindingDB's records for doi:10.1016/j.ejmech.2020.112861 (Zhengzhou University, 2021).

For the test, the target named is Bromodomain-containing protein 4 (Homo sapiens, UniProt O60885). Put plainly: Binding affinity to human BRD4 bromodomain1 by isothermal titration calorimetry.

Consider `Cc1noc(C)c1-c1ccc2c(c1)nc(CCc1ccccc1)n2CCN1CCOCC1`, for which the Kd was 0.95 µM.
